Laboratory results published in US20240247024A1, “INHIBITORS OF NICOTINAMIDE N-METHYL TRANSFERASE (NNMT)” (UNIVERSITEIT LEIDEN, priority 2021, published 2024).

Legend:
[1] = biological target: T1, NNMT (Homo sapiens, UniProt P40261); set-up: The enzymatic activity assays were performed using NNMT at a final concentration of 100 nM diluted in assay buffer; settings: background section, cited from earlier work; for IC50: known NNMT inhibitors, read-out: IC50 against NNMT
T1 sequence (P40261 1-264): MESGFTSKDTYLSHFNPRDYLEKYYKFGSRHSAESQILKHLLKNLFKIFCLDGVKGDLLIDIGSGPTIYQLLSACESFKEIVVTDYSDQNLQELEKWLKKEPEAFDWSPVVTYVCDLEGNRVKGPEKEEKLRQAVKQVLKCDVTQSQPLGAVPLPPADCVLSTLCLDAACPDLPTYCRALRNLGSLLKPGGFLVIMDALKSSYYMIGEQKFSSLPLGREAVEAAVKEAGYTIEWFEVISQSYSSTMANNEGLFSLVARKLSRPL

[2] = tested on: high-fat DIO mice; settings: cited from earlier work
[3] = cited from earlier work
[4] = tested on: A549 human lung cancer line; test: MTT cell proliferation assay, A549; assay type: cell-based; settings: for % of DMSO control at 100 μM, A549, 24 h: 24 h incubation; for % of DMSO control at 100 μM, A549, 48 h: 48 h incubation; for % of DMSO control at 100 μM, A549, 72 h: 72 h incubation
Experimental: (§1) UROTsa immortalized human urothelium cell line, HSC-2 human oral cancer cell line, T24 human bladder cancer cell line and A549 human lung cancer line were purchased from the American Type Culture Collection (ATCC, Rockville, MD, USA), and cultured in DMEM/F12 medium, supplemented with 10% fetal bovine serum and 50 μg/ml gentamicin, at 37° C. in a humidified 5% CO2 incubator. For each compound tested, powder was dissolved in DMSO at 100 mM concentration. This stock solution was then diluted in culture medium to final concentration values ranging between 1 μM and 100 μM. For each sample, DMSO was kept constant at 0.1% final concentration. The day before starting treatment, cells were seeded in 96-well plates, at a density of 2000 cells/well. Cells were allowed to attach overnight and then incubated with compounds at different final concentrations, or with DMSO only, for 24, 48 and 72 hours. All experiments were performed in triplicate.
(§2) Cell proliferation was determined using a colorimetric assay with 3-(4,5-dimethylthiazol-2-yl)-2,5-diphenyl tetrazolium bromide (MTT). The MTT assay measures the conversion of MTT to insoluble formazan by dehydrogenase enzymes of the intact mitochondria of living cells. Cell proliferation was evaluated by measuring the conversion of the tetrazolium salt MTT to formazan crystals upon treatment with compounds or DMSO only for 24, 48 and 72 hours. Briefly, cells were incubated for 2 hours at 37° C. with 100 μl fresh culture medium containing 5 μl of MTT reagent (5 mg/ml in PBS). The medium was removed and 200 μl isopropanol were added. The amount of formazan crystals formed correlated directly with the number of viable cells. The reaction product was quantified by measuring the absorbance at 540 nm using an ELISA plate reader. Experiments were repeated three times. Results were expressed as percentage of the control (control equals 100% and corresponds to the absorbance value of each sample at time zero) and presented as mean values±standard deviation of three independent experiments performed in triplicate.
(§3) Data were analysed using GraphPad Prism software for Windows (GraphPad Software, San Diego, CA). Significant differences between groups were determined using the one-way analysis of variance (ANOVA). A p value <0.05 was considered as statistically significant.

[5] = tested on: T24 human bladder cancer cell line; test: MTT cell proliferation assay, T24; assay type: cell-based; settings: for % of DMSO control at 100 μM, T24, 24 h: 24 h incubation; for % of DMSO control at 100 μM, T24, 48 h: 48 h incubation; for % of DMSO control at 100 μM, T24, 72 h: 72 h incubation
Experimental: as §1, §2, §3

[6] = tested on: HSC-2 human oral cancer cell line; test: MTT cell proliferation assay, HSC-2; assay type: cell-based; settings: for % of DMSO control at 100 μM, HSC-2, 24 h: 24 h incubation; for % of DMSO control at 100 μM, HSC-2, 48 h: 48 h incubation; for % of DMSO control at 100 μM, HSC-2, 72 h: 72 h incubation
Experimental: as §1, §2, §3

[7] = tested on: HSC-2 oral cancer cells; settings: cited from earlier work
[8] = cited from earlier work; remark: listed apart in the source
[9] = cited from earlier work; remark: listed apart in the source
[10] = rapidly degraded by SAHH to adenosine and homocysteine; cited from earlier work
[11] = tested on: U2OS cells; settings: cited from earlier work
[12] = tested on: diet-induced obese (DIO) mice; settings: cited from earlier work
[13] = tested on: aged mouse model; settings: cited from earlier work

Structure (SMILES) | IC50 [1] | % of DMSO control at 100 μM, A549, 24 h [4] | % of DMSO control at 100 μM, A549, 48 h [4] | % of DMSO control at 100 μM, A549, 72 h [4] | % of DMSO control at 100 μM, T24, 24 h [5] | % of DMSO control at 100 μM, T24, 48 h [5] | % of DMSO control at 100 μM, T24, 72 h [5] | % of DMSO control at 100 μM, HSC-2, 24 h [6] | % of DMSO control at 100 μM, HSC-2, 48 h [6] | % of DMSO control at 100 μM, HSC-2, 72 h [6] | further results
COc1ccc(C(N)=O)cn1 [JBSNF-000088] | 2400 nM | – | – | – | – | – | – | – | – | – | body weight [2]: reduce; glucose tolerance [2]: normalize; insulin sensitivity [2]: improve; plasma levels of MNA [2]: reduce
NC(=O)c1cccc(C#CCN(CC[C@H](N)C(=O)O)C[C@H]2O[C@@H](n3cnc4c(N)ncnc43)[C@H](O)[C@@H]2O)c1 [LL320] | – | – | – | – | – | – | – | – | – | – | cell permeability [3]: poor cell permeability
CCOC(=O)[C@@H](N)CCN(C/C=C/c1ccc(C#N)cc1)C[C@H]1O[C@@H](n2cnc3c(N)ncnc32)[C@H](O)[C@@H]1O [GYZ-552] | – | 100 % of DMSO control | 100 % of DMSO control | 100 % of DMSO control | 100 % of DMSO control | 100 % of DMSO control | 100 % of DMSO control | 100 % of DMSO control | 100 % of DMSO control | 73 % of DMSO control | –
CC(C)OC(=O)[C@@H](N)CCN(C/C=C/c1ccc(C#N)cc1)C[C@H]1O[C@@H](n2cnc3c(N)ncnc32)[C@H](O)[C@@H]1O [GYZ-553] | – | 100 % of DMSO control | 100 % of DMSO control | 100 % of DMSO control | 100 % of DMSO control | 71 % of DMSO control | 100 % of DMSO control | 100 % of DMSO control | 75 % of DMSO control | 56 % of DMSO control | –
COC(=O)[C@H](CCN(C/C=C/c1ccc(C#N)cc1)C[C@H]1O[C@@H](n2cnc3c(N)ncnc32)[C@H](O)[C@@H]1O)NC(=O)CC(C)(C)c1c(C)cc(C)cc1OC(C)=O [GYZ-573] | – | 100 % of DMSO control | 100 % of DMSO control | 100 % of DMSO control | 100 % of DMSO control | 79 % of DMSO control | 62 % of DMSO control | 83 % of DMSO control | 69 % of DMSO control | 39 % of DMSO control | –
Nc1ncnc2c1ncn2[C@@H]1O[C@H](CN(CC[C@H](N)C(=O)O)Cc2ccc3ccccc3c2)[C@@H](O)[C@H]1O [GYZ191] | – | – | – | – | – | – | – | – | – | – | effect on cell viability [7]: significant inhibitory effect
NC(=O)c1cccc(CCN(CCC[C@H](N)C(=O)O)C[C@H]2O[C@@H](n3cnc4c(N)ncnc43)[C@H](O)[C@@H]2O)c1 [MS2734] | 14000 nM | – | – | – | – | – | – | – | – | – | –
Cc1cccc2ccc[n+](C)c12 [8-methyl-1-MQ] | 1800 nM | – | – | – | – | – | – | – | – | – | –
CCCOC(=O)[C@H](CCN(C/C=C/c1ccc(C#N)cc1)C[C@H]1O[C@@H](n2cnc3c(N)ncnc32)[C@H](O)[C@@H]1O)NC(=O)CC(C)(C)c1c(C)cc(C)cc1OC(C)=O [GYZ-580] | – | 83 % of DMSO control | 45 % of DMSO control | 25 % of DMSO control | 72 % of DMSO control | 36 % of DMSO control | 15 % of DMSO control | 59 % of DMSO control | 41 % of DMSO control | 16 % of DMSO control | –
N#Cc1ccc(/C=C/CN(CC[C@H](N)C(=O)O)C[C@H]2O[C@@H](n3cnc4c(N)ncnc43)[C@H](O)[C@@H]2O)cc1 [GYZ-319] | – | 100 % of DMSO control | 74 % of DMSO control | 66 % of DMSO control | 100 % of DMSO control | 79 % of DMSO control | 86 % of DMSO control | 100 % of DMSO control | 53 % of DMSO control | 49 % of DMSO control | –
Nc1ncnc2c1ncn2[C@@H]1O[C@H](C[C@@H](N)CC[C@H](N)C(=O)O)[C@@H](O)[C@H]1O [Sinefungin, sinefungin] | – | – | – | – | – | – | – | – | – | – | cell membrane permeability [8]: low cell membrane permeability; toxicity in animal models [9]: severe toxicity
Nc1ncnc2c1ncn2[C@@H]1O[C@H](CSCC[C@H](N)C(=O)O)[C@@H](O)[C@H]1O [SAH, S-adenosyl-1-homocysteine] | – | – | – | – | – | – | – | – | – | – | activity in cellular assays [10]: loses its activity
NC(=O)c1cccc(CCN(CC[C@H](N)C(=O)O)C[C@H]2O[C@@H](n3cnc4c(N)ncnc43)[C@H](O)[C@@H]2O)c1 [MS2756] | 160000 nM | – | – | – | – | – | – | – | – | – | –
C[n+]1cccc2ccccc21 [Compound 1-MQ] | 12100 nM | – | – | – | – | – | – | – | – | – | –
CC(=O)Oc1cc(C)cc(C)c1C(C)(C)CC(=O)N[C@@H](CCN(C/C=C/c1ccc(C#N)cc1)C[C@H]1O[C@@H](n2cnc3c(N)ncnc32)[C@H](O)[C@@H]1O)C(=O)O [MH128] | – | 100 % of DMSO control | 100 % of DMSO control | 100 % of DMSO control | 100 % of DMSO control | 83 % of DMSO control | 84 % of DMSO control | 100 % of DMSO control | 100 % of DMSO control | 65 % of DMSO control | –
NC(=O)c1cccc(C#C[C@@H](CC[C@H](N)C(=O)O)C[C@H]2O[C@@H](n3cnc4c(N)ncnc43)[C@H](O)[C@@H]2O)c1 [NS1] | – | – | – | – | – | – | – | – | – | – | Ki ([1]; known bisubstrate inhibitors, read-out: Ki against NNMT): 0.5 nM; MNA levels in cells [11]: only moderately decreased
C[n+]1cccc2c(N)cccc21 [Compound 5-amino-1-MQ, 5-amino-1-MQ] | 1200 nM | – | – | – | – | – | – | – | – | – | adipocyte size [12]: decreased; body weight and white adipose mass [12]: significantly reduced; plasma total cholesterol levels [12]: lowered; muscle regeneration [13]: accelerate muscle regeneration
